{
  "source": "patent US9637447B2",
  "about": "“Lauflumide and the enantiomers thereof, method for preparing same and therapeutic uses thereof” (priority 2011, dated 2017)",
  "key": {"[1]": {"test_system": "young Wistar rats", "test": "T-maze test of waiting ability (ADHD model, impulsivity)", "type": "in vivo, rat", "details": "for waiting ability in the T-maze test compared to the control: administered before the test, mazindol 1, 3, 10 mg/kg intraperitoneally, lauflumide 64, 128 mg/kg orally, D-lauflumide 64, 128, 256 mg/kg orally; for improving waiting ability, effectiveness versus methylphenidate and d-amphetamine / improving waiting ability, effectiveness versus modafinil: T-maze; for improving waiting ability, effectiveness versus methylphenidate and d-amphetamine: methylphenidate 3 mg/kg, d-amphetamine 1 mg/kg intraperitoneally; for improving waiting ability, effectiveness versus modafinil: modafinil 64 and 128 mg/kg orally", "excerpt": "The test of waiting ability in a T-maze consists in offering a rat a choice between a quick and immediate food reward and a large but delayed reward. In adult Wistar rats, numerous antidepressants such as serotonin or noradrenalin reuptake inhibitors increase the number of choices for the large but delayed reward, indicating an improvement in waiting ability, i.e., a decrease in impulsivity.\nThe goal of the present study is to examine whether lauflumide in the form of its racemic mixture or its D form ((+) enantiomer), administered in 3 doses before the test, improves waiting ability in young Wistar rats subjected to the T-maze test. An improvement in waiting ability by this compound would indicate that this compound reduces impulsivity and, consequently, could be useful in the treatment of ADHD. Methylphenidate and d-amphetamine are used as a reference product in the same experiment.\nMale Wistar AF rats (Centre d′Elevage Rene Janvier, France) are used, aged 22 days at the beginning of the experiment and between 30 and 42 days at the time the molecules are administered.\nThe experiments were carried out in two identical T-mazes (FIG. 1) made of opaque gray plastic tubes (inner diameter: 7.5 cm), consisting of a starting alley (30 cm long), a transparent plastic box, (10 cm wide, 10 cm deep and 10 cm high) and two arms (35 cm long) each leading to a rectangular black plastic box (18 cm wide, 30 cm deep, 10 cm high). The removable, gray plastic guillotine doors can be inserted in vertical slots located at the entrance to the starting alley and at the end of each arm. One of the goal boxes (left or right, depending on the rat) is continuously provided with a large reward, the other with a small reward. The large and small rewards consist of 5 and 1 pellets, respectively (20 mg, Technical & Scientific Equipment GMBH, Germany). The pellets are placed in a translucent cup before each test.\nThe T-maze test is a validated test which makes it possible, by extrapolation to man, to verify the effectiveness of pharmacological agents effective in ADHD.\n1st phase: habituation. The animals are first subjected to 2 to 6 habituation sessions of 5 minutes each. The rat is gently placed in the starting alley, which is then closed off by a guillotine door inserted in the slot (reference c0 in FIG. 1). The animal is allowed to freely explore the device and to eat the rewards placed in the cups.\n2nd phase: pre-training. A door is placed in slot c2 near each goal box and then the rat is placed in the starting alley. When it enters one of the two arms, a door is inserted behind it in slot c1 near the choice point and the door placed in slot c2 is removed. Once the animal enters the goal box, the door is replaced in slot c2. The rat is removed from the goal box as soon as it eats the pellets. The animal is then returned to its cage for 2 to 3 minutes. One to three times per day, each rat is subjected to five test sessions. In four to 12 sessions, the rat chooses the arm leading to the large reward in more than 80% of the tests. The training phase then begins.\n3rd phase: training. During training the rats 1 to 4 times/day undergo sessions of 5 tests during which a delay is introduced before access to the large reward is granted. After a door is placed in slot c2 near each goal box, the rat is placed in the starting alley. When it enters one of the two arms, a second door is inserted behind it in slot c1 near the choice point, so that the rat choosing the training arm with the large reward can be held in this arm for 30 seconds—the waiting period—before having access to the reinforcement. If not, if the animal chooses the arm leading to the small reward, the door placed in slot c2 is immediately removed, allowing the animal to enter the goal box. The testing of the drugs begins when the animal chooses the large reward delayed by 30 seconds in 2 tests in 5 (or fewer) during two consecutive sessions and in 1 test in 5 (or fewer) in the following session. […]"}, "[2]": {"test": "Comparative effectiveness stated in the description (no method given)"}, "[3]": {"test_system": "young Wistar rats", "details": "cited from earlier work; for waiting ability in the T-maze test: young rats"}},
  "note": "Read-outs that look alike come from different tables or passages of the source.",
  "data": [
    {"smiles": "NC(=O)C[S+]([O-])C(c1ccc(F)cc1)c1ccc(F)cc1", "note": "(racemic) [Lauflumide]", "values": [
      {"measurement": "waiting ability in the T-maze test compared to the control", "setting": "[1]", "value": "improve waiting ability"},
      {"measurement": "effectiveness relative to adrafinil", "setting": "[2]", "value": 20, "unit": "times"},
      {"measurement": "effectiveness relative to modafinil", "setting": "[2]", "value": 4, "unit": "times"}
    ]},
    {"smiles": "NC(=O)C[S@@+]([O-])C(c1ccc(F)cc1)c1ccc(F)cc1", "note": "[D-Lauflumide]", "values": [
      {"measurement": "improving waiting ability, effectiveness versus methylphenidate and d-amphetamine", "setting": "[1]", "value": "at least as effective as methylphenidate and d-amphetamine"},
      {"measurement": "improving waiting ability, effectiveness versus modafinil", "setting": "[1]", "value": "more effective than modafinil"},
      {"measurement": "waiting ability in the T-maze test compared to the control", "setting": "[1]", "value": "improve waiting ability"},
      {"measurement": "effectiveness versus the racemic mixture of lauflumide", "setting": "[2]", "value": "more effective than the racemic mixture of lauflumide"}
    ]},
    {"smiles": "COC(=O)C(c1ccccc1)C1CCCCN1", "note": "(centres unmarked) [methylphenidate]", "values": [
      {"measurement": "number of choices for the large but delayed reward", "setting": "[3]; adult Wistar rats, spontaneously hypertensive rats (SHR) and Wistar Kyoto (WKY) rats", "value": "not"},
      {"measurement": "number of choices for the large but delayed reward", "setting": "[3]; young Wistar rats", "value": "increases the number of choices for the large but delayed reward"},
      {"measurement": "waiting ability in the T-maze test", "setting": "[3]", "value": "improved waiting ability"}
    ]},
    {"smiles": "CNCC[C@@H](Oc1ccccc1C)c1ccccc1", "note": "[atomoxetine]", "values": [
      {"measurement": "waiting ability in the T-maze test", "setting": "[3]", "value": "improved waiting ability"}
    ]},
    {"smiles": "CNCCCN1c2ccccc2CCc2ccccc21", "note": "[desipramine]", "values": [
      {"measurement": "waiting ability in the T-maze test", "setting": "[3]", "value": "improved waiting ability"}
    ]},
    {"smiles": "Clc1cccc(Cl)c1N=C1NCCN1", "note": "[clonidine]", "values": [
      {"measurement": "waiting ability in the T-maze test", "setting": "[3]", "value": "improved waiting ability"}
    ]},
    {"smiles": "CC(N)Cc1ccccc1", "note": "(racemic) [amphetamine, D,L-amphetamine]", "values": [
      {"measurement": "waiting ability in the T-maze test", "setting": "[3]", "value": "improved waiting ability"}
    ]},
    {"smiles": "OC1(c2ccc(Cl)cc2)c2ccccc2C2=NCCN21", "note": "(centres unmarked) [Mazindol, mazindol]", "values": [
      {"measurement": "improving waiting ability, effectiveness versus methylphenidate and d-amphetamine", "setting": "[1]", "value": "at least as effective as methylphenidate and d-amphetamine"},
      {"measurement": "improving waiting ability, effectiveness versus modafinil", "setting": "[1]", "value": "more effective than modafinil"},
      {"measurement": "waiting ability in the T-maze test compared to the control", "setting": "[1]", "value": "improve waiting ability"}
    ]}
  ]
}
